Source: patent publication US9113629B2, “4-amino-6-(4-substituted-phenyl)-picolinates and 6-amino-2-(4-substituted-phenyl)-pyrimidine-4-carboxylates and their use as herbicides” (DOW AGROSCIENCES LLC, priority 2013, dated 2015)
Read-outs that look alike come from different tables or passages of the source.

Columns and labels:
[1] = system: Key Broadleaf Weed and Crop Species; experiment: Post-emergent Test II herbicidal activity (Table 5); format: in vivo; settings: post-emergence, 336 h, post-emergent, 14 days after application; for pest or weed control at 70 g/ha: 70 g ai/ha; for pest or weed control at 140 g/ha: 140 g ai/ha
Procedure, shortened: (§1)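 Visual injury ratings (0 = no injury, 100 = complete kill) were taken 14 d after treatment, relative to untreated plants. Seedlings at the first–second true leaf stage received overhead spray at 187 L/ha; the highest rate was serially diluted to ½×, ¼×, ⅛× and 1/16×.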

[2] = system: Key Grass and Sedge Weeds as well as Grass Crops; experiment: Post-emergent Test II herbicidal activity (Table 6); format: in vivo; settings: post-emergence, 336 h; for pest or weed control at 70 g/ha: application rate 70 g ai/ha; for pest or weed control at 140 g/ha: application rate 140 g ai/ha
Procedure, shortened: as §1

[3] = ABUTH: velvetleaf (Abutilon theophrasti), read-out: Visual Growth Reduction (%) 14 Days After Application ABUTH
[4] = AMARE: redroot pigweed (Amaranthus retroflexus), read-out: Visual Growth Reduction (%) 14 Days After Application AMARE
[5] = BRSNN: oilseed-rape, canola (Brassica napus), read-out: Visual Growth Reduction (%) 14 Days After Application BRSNN
[6] = CHEAL: lambsquarters (Chenopodium album), read-out: Visual Growth Reduction (%) 14 Days After Application CHEAL
[7] = EPHHL: wild poinsettia (Euphorbia heterophylla), read-out: Visual Growth Reduction (%) 14 Days After Application EPHHL
[8] = HELAN: sunflower (Helianthus annuus), read-out: Visual Growth Reduction (%) 14 Days After Application HELAN
[9] = VIOTR: wild pansy (Viola tricolor), read-out: Visual Growth Reduction (%) 14 Days After Application VIOTR
[10] = CYPES: yellow nutsedge (Cyperus esculentus), read-out: Visual Growth Reduction (%) 14 Days After Application, CYPES
[11] = DIGSA: crabgrass (Digitaria sanguinalis), read-out: Visual Growth Reduction (%) 14 Days After Application, DIGSA
[12] = ECHCG: barnyardgrass (Echinochloa crus-galli), read-out: Visual Growth Reduction (%) 14 Days After Application, ECHCG
[13] = ORYSA: rice (Oryza sativa), read-out: Visual Growth Reduction (%) 14 Days After Application, ORYSA
[14] = SETFA: giant foxtail (Setaria faberi), read-out: Visual Growth Reduction (%) 14 Days After Application, SETFA
[15] = SORVU: grain sorghum (Sorghum vulgare), read-out: Visual Growth Reduction (%) 14 Days After Application, SORVU
[16] = TRZSS (wheat, Triticum aestivum), read-out: Visual Growth Reduction (%) 14 Days After Application, TRZSS
[17] = ZEAMX: maize, corn (Zea mays), read-out: Visual Growth Reduction (%) 14 Days After Application, ZEAMX

Structure (SMILES): COC(=O)c1nc(-c2cc(F)c(C(F)F)cc2F)cc(N)c1Cl [Compound 205]
- pest or weed control at 70 g/ha [1, 3]: 95 to 100%
- pest or weed control at 140 g/ha [1, 3]: 95 to 100%
- pest or weed control at 70 g/ha [1, 4]: 95 to 100%
- pest or weed control at 140 g/ha [1, 4]: 95 to 100%
- pest or weed control at 70 g/ha [1, 5]: 60 to 74%
- pest or weed control at 140 g/ha [1, 5]: 85 to 94%
- pest or weed control at 70 g/ha [1, 6]: 95 to 100%
- pest or weed control at 140 g/ha [1, 6]: 95 to 100%
- pest or weed control at 70 g/ha [1, 7]: 95 to 100%
- pest or weed control at 140 g/ha [1, 7]: 95 to 100%
- pest or weed control at 70 g/ha [1, 8]: 85 to 94%
- pest or weed control at 140 g/ha [1, 8]: 95 to 100%
- pest or weed control at 70 g/ha [1, 9]: 45 to 59%
- pest or weed control at 140 g/ha [1, 9]: 60 to 74%
- melting point: 141.8 to 145 °C
- pest or weed control at 70 g/ha [2, 10]: 85 to 94%
- pest or weed control at 140 g/ha [2, 10]: 95 to 100%
- pest or weed control at 70 g/ha [2, 11]: 30 to 44%
- pest or weed control at 140 g/ha [2, 11]: 45 to 59%
- pest or weed control at 70 g/ha [2, 12]: 85 to 94%
- pest or weed control at 140 g/ha [2, 12]: 85 to 94%
- pest or weed control at 70 g/ha [2, 13]: 0 to 29%
- pest or weed control at 140 g/ha [2, 13]: 0 to 29%
- pest or weed control at 70 g/ha [2, 14]: 45 to 59%
- pest or weed control at 140 g/ha [2, 14]: 75 to 84%
- pest or weed control at 70 g/ha [2, 15]: 60 to 74%
- pest or weed control at 140 g/ha [2, 15]: 75 to 84%
- pest or weed control at 70 g/ha [2, 16]: 0 to 29%
- pest or weed control at 140 g/ha [2, 16]: 30 to 44%
- pest or weed control at 70 g/ha [2, 17]: 30 to 44%
- pest or weed control at 140 g/ha [2, 17]: 60 to 74%

Structure (SMILES): COC(=O)c1nc(-c2cc(F)c(C#N)cc2F)nc(N)c1OC [Compound 208]
- pest or weed control at 70 g/ha [1, 3]: 0 to 29%
- pest or weed control at 140 g/ha [1, 3]: 0 to 29%
- pest or weed control at 70 g/ha [1, 4]: 0 to 29%
- pest or weed control at 140 g/ha [1, 4]: 0 to 29%
- pest or weed control at 70 g/ha [1, 5]: 0 to 29%
- pest or weed control at 140 g/ha [1, 5]: 0 to 29%
- pest or weed control at 70 g/ha [1, 6]: 0 to 29%
- pest or weed control at 140 g/ha [1, 6]: 0 to 29%
- pest or weed control at 70 g/ha [1, 7]: 30 to 44%
- pest or weed control at 140 g/ha [1, 7]: 45 to 59%
- pest or weed control at 70 g/ha [1, 8]: 0 to 29%
- pest or weed control at 140 g/ha [1, 8]: 45 to 59%
- pest or weed control at 70 g/ha [1, 9]: 0 to 29%
- pest or weed control at 140 g/ha [1, 9]: 0 to 29%
- melting point: 165 to 166.5 °C
- pest or weed control at 70 g/ha [2, 10]: 0 to 29%
- pest or weed control at 140 g/ha [2, 10]: 0 to 29%
- pest or weed control at 70 g/ha [2, 11]: 0 to 29%
- pest or weed control at 140 g/ha [2, 11]: 0 to 29%
- pest or weed control at 70 g/ha [2, 12]: 0 to 29%
- pest or weed control at 140 g/ha [2, 12]: 0 to 29%
- pest or weed control at 70 g/ha [2, 13]: 0 to 29%
- pest or weed control at 140 g/ha [2, 13]: 0 to 29%
- pest or weed control at 70 g/ha [2, 14]: 0 to 29%
- pest or weed control at 140 g/ha [2, 14]: 0 to 29%
- pest or weed control at 70 g/ha [2, 15]: 0 to 29%
- pest or weed control at 140 g/ha [2, 15]: 0 to 29%
- pest or weed control at 70 g/ha [2, 16]: 0 to 29%
- pest or weed control at 140 g/ha [2, 16]: 0 to 29%
- pest or weed control at 70 g/ha [2, 17]: 0 to 29%
- pest or weed control at 140 g/ha [2, 17]: 0 to 29%
